# From patent US11103619B2, “Anticalcification treatment for impantable biological tissues using calcitonin” (priority 2018, dated 2021)
# System: Porcine aortic leaflets implanted subdermally in male Wistar rats
# Experiment: Post-implantation calcium content of treated porcine aortic leaflets implanted subdermally in rats for 21 days, measured by atomic absorption
# Format: in vivo
# Conditions: for Cumulative results of post-implantation Ca concentration: mean ± STDEV, p < 0.05 vs Group I (Glut only, 126.95 ± 12.97); for Post implantation Ca Content: explanted after 21 days, mean
# Description: In one embodiment, the method comprises placing the biological tissue for fixation and preservation in a buffered glutaraldehyde (Glut) solution 0.5% at pH 7.4, adding salmon synthetic calcitonin (CT), such as Miacalcic® of Novartis Hellas A.B.E. In this experiment, two different concentrations of calcitonin were tested. One with 1 unit/100 ml (1%) and the other with 10 units/100 ml (10%). The first fixation process lasted one hour, at a pressure between 2-3 mmHg and subsequently the biological tissues were embedded in an accordingly new solution for one week.
# Porcine aortic leaflets were selected as fresh tissue from a local slaughter house and were cut radially in three parts. Following harvesting, the biological tissue is rinsed and maintained in cold Hepa saline solution (temperature between 4°-12° C.) between two to six hours.
# Three groups of tissue were created. Group I (Glut only), Group II (Glut with 1% CT) and Group III (Glut with 10% CT). All tissues were then implanted subdermally in three sets of 8 (Group I), 9 (Group II) and 9 (Group III) male Wistar rats of 12 days old (Center for Experimental Surgery, Biomedical Research Foundation of the Academy of Athens). […] All tissues were rinsed three times in normal saline solution for 10 minutes each time before implantation. Each rat received four fragments of tissue at the dorsum, through four separate incisions (two at each side) each of 1 cm long, with a technique we have previously described elsewhere (Agathos E A et al: “In vivo calcification of glutaraldehyde fixed cardiac valve and pericardium of Phoca Groenlandica”: ASAIO 57(4):328-332, July/August 2011).
# 21 days later the rats were euthanized by inhalation of CO2. All procedures were approved by the Animal Care Committee of the Academy of Athens and performed according to the Guide for the Care and Use of Laboratory Animals prepared by the Institutes of Laboratory Animal Resources, National Research Council and published by the National Academy Press, revised 1996 (NIH publication No. 85-23). The tissues were retrieved and after rinsing with distilled water 3 times, were lyophilized at −40° C. at high vacuum pressure of approximately […] for 16 hours. The calcium content was then measured with flat atomic absorption technique.
# For statistical analysis, the commercially available software package ANOVA Origin 8.0 for Windows (OriginLab Corporation, Northampton, Mass., USA) was used. P values of 0.05 or less were defined as a statistically significant difference.
substance,measurement,setting,value
salmon synthetic calcitonin [CT],"Ca concentration accumulation in the explanted tissues (fold, post vs pre implantation)",Group II (1% CT),5.16 ×
same,Cumulative results of post-implantation Ca concentration,"Group II (1% CT), ns vs Group III",24.69 ± 2.71
same,Post implantation Ca Content,Group II: Glut with 1% CT,24.69 mg Ca/gr tissue
same,"Ca concentration accumulation in the explanted tissues (fold, post vs pre implantation)",Group III (10% CT),9.43 ×
same,Cumulative results of post-implantation Ca concentration,"Group III (10% CT), ns vs Group II",27.16 ± 2.95
same,Post implantation Ca Content,Group III: Glut with 10% CT,27.16 mg Ca/gr tissue
